Laboratory results from PubChem BioAssay AID1963872 (Molecular Pharmacology Branch, DTP, NCI, 2024).

Tested on: KRAS patient-derived spheroids with HUVEC/MSC, viability
Experiment: Anticancer human tumor 519858-162-T-J1-PDC patient-derived colon adenocarcinoma cell line growth inhibition [KRAS2]
Details: for IC50: curve of first compound; for viability, T/C: stronger effect = lower value
Description: Multicellular complex tumor spheroid response to RAS pathway inhibitors in combination with a targeted agents in patient-derived cell lines with oncogenic KRAS variants from multiple cancer types
A high-throughput screen of multi-cell type tumor spheroids was designed to identify active combinations of targeted small molecules and KRAS pathway inhibitors. Complex spheroids include a stromal component modeled by human endothelial cells (HUVEC) and fibroblasts modeled by human mesenchymal stem cells (MSCs). The concentration ranges selected for each drug and investigational agent were based upon clinically achievable concentrations if the clinical Cmax of the agent was known.
Compounds. The drugs and investigational agents: BI-3406 (NSC825286), BAY-293 (NSC824723), batoprotafib (TNO155; NSC825523), sotorasib (AMG 510; NSC818433), MRTX1257 (NSC819558), elimusertib (BAY 1895344; NSC800525), molibresib (GSK525762; NSC774829), temuterkib (LY3214996; NSC803410), venetoclax (NSC766270), alisertib (NSC759677), olaparib (NSC753686), talazoparib (NSC767125), erdafitinib (NSC781556), ipatasertib (NSC767898), cabozantinib (NSC761068), nintedanib (NSC756659), abemaciclib (NSC768073), docetaxel (NSC628503), trametinib (NSC758246), and sapanisertib (NSC764658) were obtained from the National Cancer Institute (NCI) Developmental Therapeutics Program Chemical Repository. The FDA-approved anticancer drug set is available from the Developmental Therapeutics Program. […] The stock solutions were prepared in dimethyl sulfoxide (DMSO, Sigma-Aldrich, St. Louis, MO, cat. D2650) at 800-fold the tested concentration and stored at -70 degrees C prior to their use. All drugs and investigational agents were tested over a range starting from a high concentration at or near the clinical Cmax and decreasing in half-log increments. If the clinical Cmax for an agent had not been determined, the highest concentration tested was 10 microM.
Cell Culture. All cells were maintained in an incubator at 37 degrees C and 5% CO2 with 95% humidity. The PDC lines were cultured according to standard operating procedures established by the NCI PDMR (https://pdmr.cancer.gov/sops/default.htm). Briefly, all PDCs were thawed and cultured in Matrigel-coated flasks prepared with a working solution of 1X Ham's F-12 nutrient mix, without supplementation (Invitrogen, Waltham, MA, cat. 11765054), 100 U/mL penicillin-streptomycin (Invitrogen, cat. 15140122), and 2.5% Matrigel (Corning Inc., Corning, NY, cat. 354248) for the first three passages. All PDCs were cultured in complete DMEM/F-12 media containing advanced DMEM/F-12 (Invitrogen, cat. 12634028), 4.9% defined fetal bovine serum, heat inactivated (HyClone Laboratories Inc., Logan, UT, cat. SH30070.03HI), 389 ng/mL hydrocortisone (Sigma-Aldrich, cat. H4001), 9.7 ng/mL human EGF recombinant protein (Invitrogen, cat. PHG0313), 23.4 microg/mL adenine (Sigma-Aldrich, cat. A2786), 97.3 U/mL penicillin-streptomycin (Invitrogen, cat. 15140122), 1.9 mM L-glutamine (Invitrogen, cat. 25030081), and 9.7 microM Y-27632 dihydrochloride (Tocris Bioscience, Bristol, United Kingdom, cat. 1254). The PDCs were cultured in complete DMEM/F12 media without 9.7 microM Y-27632 dihydrochloride for at least two passages prior to the screen. The established cell line HOP-62 was cultured in RPMI 1640 medium, HEPES (Invitrogen, cat. 22400105) with 10% defined fetal bovine serum (HyClone Laboratories Inc., cat. SH30070.03) and 2 mM L-glutamine (Invitrogen, cat. 25030081). The pooled donor HUVEC were cultured in endothelial cell growth medium 2 (PromoCell, Heidelberg, Germany, cat. C-22011) and the hMSC were cultured in mesenchymal stem cell growth medium 2 (PromoCell, cat. C-28009). For all experiments, HUVEC and hMSC were used at passages </=5, while the malignant cell lines were used at passages </=15. […]

[1] = second compound 0.1 µM, first compound 0.01 µM
[2] = second compound 0.1 µM, first compound 0.0316 µM
[3] = second compound 0.1 µM, first compound 0.1 µM
[4] = second compound 0.316 µM, first compound 0.01 µM
[5] = second compound 0.316 µM, first compound 0.0316 µM
[6] = second compound 0.316 µM, first compound 0.1 µM
[7] = second compound 1 µM, first compound 0.01 µM
[8] = second compound 1 µM, first compound 0.0316 µM
[9] = second compound 1 µM, first compound 0.1 µM
[10] = second compound 3.16 µM, first compound 0.01 µM
[11] = second compound 3.16 µM, first compound 0.0316 µM
[12] = second compound 3.16 µM, first compound 0.1 µM
[13] = second compound 10 µM, first compound 0.01 µM
[14] = second compound 10 µM, first compound 0.0316 µM
[15] = second compound 10 µM, first compound 0.1 µM
[16] = second compound 0.1 µM, first compound 0.316 µM
[17] = second compound 0.1 µM, first compound 1 µM
[18] = second compound 0.1 µM, first compound 3.16 µM
[19] = second compound 0.316 µM, first compound 0.316 µM
[20] = second compound 0.316 µM, first compound 1 µM
[21] = second compound 0.316 µM, first compound 3.16 µM
[22] = second compound 1 µM, first compound 0.316 µM
[23] = second compound 1 µM, first compound 1 µM
[24] = second compound 1 µM, first compound 3.16 µM
[25] = second compound 3.16 µM, first compound 0.316 µM
[26] = second compound 3.16 µM, first compound 1 µM
[27] = second compound 3.16 µM, first compound 3.16 µM
[28] = second compound 10 µM, first compound 0.316 µM
[29] = second compound 10 µM, first compound 1 µM
[30] = second compound 10 µM, first compound 3.16 µM
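Also: compound exposure lasted seven days before readout.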
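For viability, T/C in this document: 100% = DMSO vehicle control viability.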

Row | SMILES | IC50 (second compound 0.1 µM) [µM] | IC50 (second compound 0.316 µM) [µM] | IC50 (second compound 1 µM) [µM] | IC50 (second compound 3.16 µM) [µM] | IC50 (second compound 10 µM) [µM] | viability, T/C [1] [%] | viability, T/C [2] [%] | viability, T/C [3] [%] | viability, T/C [4] [%] | viability, T/C [5] [%] | viability, T/C [6] [%] | viability, T/C [7] [%] | viability, T/C [8] [%] | viability, T/C [9] [%] | viability, T/C [10] [%] | viability, T/C [11] [%] | viability, T/C [12] [%] | viability, T/C [13] [%] | viability, T/C [14] [%] | viability, T/C [15] [%] | also measured
1 | CC(C)n1nc(-c2ccc3oc(N)nc3c2)c2c(N)ncnc21 + CC1OCC2(CCN(c3cnc(Sc4ccnc(N)c4Cl)c(N)n3)CC2)C1N | > 0.1 | > 0.1 | > 0.1 | > 0.1 | > 0.1 | 89.7 | 86.2 | 77 | 60.8 | 71.3 | 65.5 | 102 | 89.7 | 80.7 | 93.9 | 91.8 | 92.9 | 105 | 112 | 100 | viability, T/C (second compound 0.1 µM, first compound 0.000316 µM): 92.4%; viability, T/C (second compound 0.1 µM, first compound 0.001 µM): 90.3%; viability, T/C (second compound 0.1 µM, first compound 0.00316 µM): 100%; viability, T/C (second compound 0.316 µM, first compound 0.000316 µM): 104%; viability, T/C (second compound 0.316 µM, first compound 0.001 µM): 85.6%; viability, T/C (second compound 0.316 µM, first compound 0.00316 µM): 88.6%; viability, T/C (second compound 1 µM, first compound 0.000316 µM): 86.5%; viability, T/C (second compound 1 µM, first compound 0.001 µM): 84.9%; viability, T/C (second compound 1 µM, first compound 0.00316 µM): 78%; viability, T/C (second compound 3.16 µM, first compound 0.000316 µM): 60.2%; viability, T/C (second compound 3.16 µM, first compound 0.001 µM): 91.6%; viability, T/C (second compound 3.16 µM, first compound 0.00316 µM): 90.1%; viability, T/C (second compound 10 µM, first compound 0.000316 µM): 76.8%; viability, T/C (second compound 10 µM, first compound 0.001 µM): 85.7%; viability, T/C (second compound 10 µM, first compound 0.00316 µM): 89.2%
2 | CC(=O)OC12COC1CC(O)C1(C)C(=O)C(O)C3=C(C)C(OC(=O)C(O)C(NC(=O)OC(C)(C)C)c4ccccc4)CC(O)(C(OC(=O)c4ccccc4)C21)C3(C)C (stereo not given) + C=CC(=O)N1CCN(c2nc(=O)n(-c3c(C)ccnc3C(C)C)c3nc(-c4c(O)cccc4F)c(F)cc23)C(C)C1 | > 3.16 | > 3.16 | > 3.16 | > 3.16 | > 3.16 | 121 | 80.8 | 98.2 | 84.7 | 68.9 | 84.3 | 62.8 | 80.2 | 90.5 | 54.7 | 74.6 | 70 | 62.1 | 79 | 84.5 | viability, T/C [16]: 89.6%; viability, T/C [17]: 72.3%; viability, T/C [18]: 62.1%; viability, T/C [19]: 93.1%; viability, T/C [20]: 77.5%; viability, T/C [21]: 64.7%; viability, T/C [22]: 83.5%; viability, T/C [23]: 74.1%; viability, T/C [24]: 67.8%; viability, T/C [25]: 103%; viability, T/C [26]: 69.7%; viability, T/C [27]: 75.8%; viability, T/C [28]: 68.5%; viability, T/C [29]: 64.8%; viability, T/C [30]: 69.3%
3 | CCNC(=O)CC1N=C(c2ccc(Cl)cc2)c2cc(OC)ccc2-n2c(C)nnc21 (stereo not given) + CNCc1ccccc1-c1csc(C(C)Nc2nc(C)nc3cc(OC)c(OC)cc23)c1 | 2.25 | 1.37 | 0.51 | 0.0739 | < 0.0316 |  | 82.5 | 109 |  | 81.5 | 74.5 |  | 61.1 | 59 |  | 51.9 | 54 |  | 0.36 | 1.18 | viability, T/C [16]: 87.2%; viability, T/C [17]: 67.5%; viability, T/C [18]: 43.8%; viability, T/C (second compound 0.1 µM, first compound 10 µM): 19.8%; viability, T/C [19]: 65.6%; viability, T/C [20]: 52.4%; viability, T/C [21]: 41.2%; viability, T/C (second compound 0.316 µM, first compound 10 µM): 25.6%; viability, T/C [22]: 54.2%; viability, T/C [23]: 44%; viability, T/C [24]: 34.9%; viability, T/C (second compound 1 µM, first compound 10 µM): 24.2%; viability, T/C [25]: 37.5%; viability, T/C [26]: 29.1%; viability, T/C [27]: 23.9%; viability, T/C (second compound 3.16 µM, first compound 10 µM): 9.53%; viability, T/C [28]: 0.49%; viability, T/C [29]: 0.46%; viability, T/C [30]: 0.69%; viability, T/C (second compound 10 µM, first compound 10 µM): 0.69%
